{"source": "patent US20260240834A1", "about": "“METHODS OF TREATING CANCER” (XRad Holding Cayman Limited, priority 2023, published 2026)", "key": {"[1]": {"tested_on": "UWB1.289 BRCA1 mutant human ovarian cancer cell line", "test": "CellTiter-Glo (CTG) cell growth inhibition, UWB1.289", "assay_type": "cell-based", "conditions": "UWB1.289 cells; for IC50: Homo sapiens", "excerpt": "(§1) A549 human lung carcinoma cell line, UWB1.289 BRCA1 mutant human ovarian cancer cell line, and UWB1.289+BRCA1 stable cell line derived from UWB1.289, in which wild-type BRCA1 was restored, were obtained from the American Type Culture Collection (ATCC). Capan-1 BRCA2 mutant human pancreatic cell line was obtained from the Duke Cell Culture Facility (Duke University, Durham, NC). HCC1937 BRCA1 mutant breast cancer cell line was obtained from Simon Powell (Memorial-Sloan Kettering, NY, NY). All cell lines were authenticated by short tandem repeat profiling and tested negative for mycoplasma. A549 cells were cultured in RPMI 1640 medium (Gibco), supplemented with 10% fetal bovine serum (FBS) (Corning) and 1× Antibiotic-Antimycotic (A-A) (Gibco). Capan-1 cells were grown in Iscove's Modified Dulbecco's Medium (IMDM) (Gibco), 20% FBS and 1×A-A. HCC1937 cells were grown in Iscove's Modified Dulbecco's Medium, 15% serum, and L-glutamine (2 mM). UWB1.289 and UWB1.289+BRCA1 cells were grown in 50% RPMI 1640 supplemented with 1 mM Sodium Pyruvate, 10 mM HEPES and 4500 mg/L glucose and 50% Mammary Epithelial Growth Medium (MEGM) (Clonetics) with 200 ug/ml G-418 (Gibco) and supplemented with 3% FBS and 1×A-A. All cell lines were grown at 37° C. in 5% CO2. Cell growth inhibition was determined via the CellTiter-Glo (CTG) assay (Promega). […] HCC1937 and UWB1.289 cells were treated with increasing concentrations of Compound A, niraparib, or the combination for 7 days."}, "[2]": {"tested_on": "UWB1.289+BRCA1 stable cell line (wild-type BRCA1 restored)", "test": "CellTiter-Glo (CTG) cell growth inhibition, UWB1.289+BRCA1", "assay_type": "cell-based, human", "conditions": "for IC50: Homo sapiens, UWB1289, UWB1.289 + BRCA1 cells", "excerpt": "as §1"}, "[3]": {"tested_on": "HCC1937 BRCA1 mutant breast cancer cell line", "test": "CellTiter-Glo (CTG) cell growth inhibition, HCC1937", "assay_type": "cell-based, human", "conditions": "HCC1937 cells; for IC50: Homo sapiens, 168 h", "excerpt": "as §1"}, "[4]": {"tested_on": "Capan-1 BRCA2 mutant human pancreatic cell line", "test": "CellTiter-Glo (CTG) cell growth inhibition, Capan-1", "assay_type": "cell-based", "conditions": "Capan-1 cells; for IC50: Homo sapiens, 312 h", "excerpt": "as §1"}, "[5]": {"tested_on": "UWB1.289 BRCA1 mutant human ovarian cancer cell line", "test": "Clonogenic survival assay, UWB1.289", "assay_type": "cell-based", "conditions": "UWB1.289 cells, Compound A at 250, 500 or 1000 nM, 8 days", "excerpt": "(§2) A549 human lung carcinoma cell line, UWB1.289 BRCA1 mutant human ovarian cancer cell line, and UWB1.289+BRCA1 stable cell line derived from UWB1.289, in which wild-type BRCA1 was restored, were obtained from the American Type Culture Collection (ATCC). Capan-1 BRCA2 mutant human pancreatic cell line was obtained from the Duke Cell Culture Facility (Duke University, Durham, NC). HCC1937 BRCA1 mutant breast cancer cell line was obtained from Simon Powell (Memorial-Sloan Kettering, NY, NY). All cell lines were authenticated by short tandem repeat profiling and tested negative for mycoplasma. A549 cells were cultured in RPMI 1640 medium (Gibco), supplemented with 10% fetal bovine serum (FBS) (Corning) and 1× Antibiotic-Antimycotic (A-A) (Gibco). Capan-1 cells were grown in Iscove's Modified Dulbecco's Medium (IMDM) (Gibco), 20% FBS and 1×A-A. HCC1937 cells were grown in Iscove's Modified Dulbecco's Medium, 15% serum, and L-glutamine (2 mM). […]\n(§3) UWB1.289 and UWB1.289+BRCA1 cells were plated in 6-well plates at 1000 cells/well and treated with DMSO or Compound A at 250, 500 or 1000 nM for 8 days before colonies were counted. For shRNA experiments, A549 cells were treated with DMSO or Compound A at 250, 500 or 1000 nM following transduction of control shRNA or shBRCA2 for 8 days before colonies were counted. […]"}, "[6]": {"tested_on": "UWB1.289+BRCA1 stable cell line (wild-type BRCA1 restored)", "test": "Clonogenic survival assay, UWB1.289+BRCA1", "assay_type": "cell-based, human", "conditions": "UWB1.289+BRCA1 cells, Compound A at 250, 500 or 1000 nM, 8 days", "excerpt": "as §2, §3"}, "[7]": {"tested_on": "A549 human lung carcinoma cell line, BRCA2 knockdown (shBRCA2)", "test": "Clonogenic survival assay, A549 with shBRCA2", "assay_type": "cell-based", "conditions": "A549 cells with BRCA2 knockdown, Compound A at 250, 500 or 1000 nM, 8 days", "excerpt": "as §2, §3"}, "[8]": {"conditions": "Compound A in combination with niraparib, 7 days"}}, "note": "Read-outs that look alike come from different tables or passages of the source.", "data": [{"smiles": "NC(=O)c1cccc2cn(-c3ccc([C@@H]4CCCNC4)cc3)nc12", "note": "[Niraparib, niraparib]", "values": [{"measurement": "IC50", "setting": "[1]; UWB1289, 168 h, single agent, 7 days, CTG, read-out: Single Agent IC50 (mean ± SEM) Niraparib", "value": "330 ± 90", "unit": "nM"}, {"measurement": "IC50", "setting": "[1]; UWB1289, 0.25 μM Compound A + niraparib for 3 days, then niraparib alone for additional 4 days, read-out: IC50 + 0.25 μM Compound A (mean ± SEM) Niraparib", "value": "< 14", "unit": "nM"}, {"measurement": "shift of the dose response curve of niraparib", "setting": "[1]; 0.25 μM Compound A for 3 days of a 7-day treatment with niraparib", "value": "> 23", "unit": "fold"}, {"measurement": "IC50", "setting": "[2]; 0.25 μM Compound A + niraparib for 3 days, then niraparib alone for additional 4 days, read-out: IC50 + 0.25 μM Compound A (mean ± SEM) Niraparib", "value": "140 ± 20", "unit": "nM"}, {"measurement": "IC50", "setting": "[2]; single agent, CTG, read-out: Single Agent IC50 (mean ± SEM) Niraparib", "value": "1400 ± 110", "unit": "nM"}, {"measurement": "shift of the dose response curve of niraparib", "setting": "[2]; UWB1.289+BRCA1 cells, 0.25 μM Compound A for 3 days of a 7-day treatment with niraparib", "value": 10, "unit": "fold"}, {"measurement": "shift of the dose response curve of niraparib", "setting": "[3]; addition of 0.25 μM Compound A", "value": 10, "unit": "fold"}, {"measurement": "IC50", "setting": "[3]; 0.25 μM Compound A + increasing concentrations of niraparib for 7 days, read-out: IC50 + 0.25 μM Compound A (mean ± SEM) Niraparib", "value": "380 ± 180", "unit": "nM"}, {"measurement": "IC50", "setting": "[3]; single agent, 7 days, CTG, read-out: Single Agent IC50 (mean ± SEM) Niraparib", "value": "3700 ± 270", "unit": "nM"}, {"measurement": "shift of the dose response curve of niraparib", "setting": "[4]; addition of 0.5 μM Compound A", "value": -5, "unit": "fold"}, {"measurement": "IC50", "setting": "[4]; 0.5 μM Compound A + increasing concentrations of niraparib for 13 days, read-out: IC50 + 0.5 μM Compound A (mean ± SEM) Niraparib", "value": "110 ± 10", "unit": "nM"}, {"measurement": "IC50", "setting": "[4]; single agent, 13 days, CTG, read-out: Single Agent IC50 (mean ± SEM) Niraparib", "value": "550 ± 50", "unit": "nM"}]}, {"smiles": "CC(C)NCCOc1ncc(-c2cc3c4c(cnc3cc2F)N(C)C(=O)C42CCC2)cc1NS(C)(=O)=O", "note": "[Compound A]", "values": [{"measurement": "clonogenic survival", "setting": "[5]", "value": "exhibited sensitivity to Compound A"}, {"measurement": "clonogenic survival", "setting": "[6]", "value": "rescued with re-expression of wild-type BRCA1"}, {"measurement": "CI50 (combination index, method of Chou)", "setting": "[1]; [8]", "value": 0.4}, {"measurement": "IC50", "setting": "[1]; UWB1289, 168 h, single agent, 7 days, CTG, read-out: Single Agent IC50 (mean ± SEM) Compound A", "value": "260 ± 100", "unit": "nM"}, {"measurement": "IC50", "setting": "[2]; single agent, CTG, read-out: Single Agent IC50 (mean ± SEM) Compound A", "value": "800 ± 10", "unit": "nM"}, {"measurement": "CI50 (combination index, method of Chou)", "setting": "[3]; [8]", "value": 0.3}, {"measurement": "IC50", "setting": "[3]; single agent, 7 days, CTG, read-out: Single Agent IC50 (mean ± SEM) Compound A", "value": "1000 ± 170", "unit": "nM"}, {"measurement": "clonogenic survival", "setting": "[7]", "value": "dose-dependent decrease in survival"}, {"measurement": "CI50 (combination index, method of Chou)", "setting": "[4]; Compound A in combination with niraparib, 13 days", "value": 0.5}, {"measurement": "IC50", "setting": "[4]; single agent, 13 days, CTG, read-out: Single Agent IC50 (mean ± SEM) Compound A", "value": "810 ± 80", "unit": "nM"}]}]}
